# Measurements taken from the supplement of paper PMC10307832.
# What was measured:
# Assay in all cases: relative viability (nuclei count vs DMSO), 5 days (fraction); higher = more cells survive
# [1] = compound: CC1=C(N=C(N=C1N)[C@H](CC(=O)N)NC[C@@H](C(=O)N)N)C(=O)N[C@@H]([C@H](C2=CN=CN2)OC3C(C(C(C(O3)CO)O)O)OC4C(C(C(C(O4)CO)O)OC(=O)N)O)C(=O)N[C@H](C)[C@H]([C@H](C)C(=O)N[C@@H]([C@@H](C)O)C(=O)NCCC5=NC(=CS5)C6=NC(=CS6)C(=O)NCCC[S+](C)C)O [Bleomycin] + O=C(CCCCCCC(=O)Nc1ccccc1)NO [Vorinostat] (partner 1 µM); conditions: main component drawn
# Method in brief: (§1)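 Lung cancer cell lines, seeded in 1536-well plates, were treated the following day by pin tool with a single drug or with five library-drug doses (not always all listed) in √10 steps on top of a fixed anchor-drug dose. Cells were fixed and nuclei stained in one step after 5 days, and nuclei were counted. Relative viability is the nuclei count for treated wells divided by that for vehicle wells, reported as medians of duplicate plates.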
# [2] = compound: COc1cc([C@@H]2c3cc4c(cc3[C@@H](O[C@@H]3O[C@@H]5CO[C@@H](C)O[C@H]5[C@H](O)[C@H]3O)[C@H]3COC(=O)[C@H]23)OCO4)cc(OC)c1O [Etoposide] + Cc1nc(NC(=O)N2CCC[C@H]2C(N)=O)sc1-c1ccnc(C(C)(C)C(F)(F)F)c1 [Alpelisib] (partner 2 µM)
# Method in brief: as §1
# [3] = compound: CC1=C(N=C(N=C1N)[C@H](CC(=O)N)NC[C@@H](C(=O)N)N)C(=O)N[C@@H]([C@H](C2=CN=CN2)OC3C(C(C(C(O3)CO)O)O)OC4C(C(C(C(O4)CO)O)OC(=O)N)O)C(=O)N[C@H](C)[C@H]([C@H](C)C(=O)N[C@@H]([C@@H](C)O)C(=O)NCCC5=NC(=CS5)C6=NC(=CS6)C(=O)NCCC[S+](C)C)O [Bleomycin] + Nc1ncn([C@H]2C[C@H](O)[C@@H](CO)O2)c(=O)n1 [Decitabine] (partner 2 µM); conditions: main component drawn
# Method in brief: as §1
# [4] = compound: COc1cc([C@@H]2c3cc4c(cc3[C@@H](O[C@@H]3O[C@@H]5CO[C@@H](C)O[C@H]5[C@H](O)[C@H]3O)[C@H]3COC(=O)[C@H]23)OCO4)cc(OC)c1O [Etoposide] + CS(=O)(=O)CCNCc1ccc(-c2ccc3ncnc(Nc4ccc(OCc5cccc(F)c5)c(Cl)c4)c3c2)o1 [Lapatinib] (partner 2 µM)
# Method in brief: as §1
Cell Line,relative viability ([1]; first compound 0.01 µM),relative viability ([1]; first compound 0.03162 µM),relative viability ([1]; first compound 0.1 µM),relative viability ([1]; first compound 0.3162 µM),relative viability ([1]; first compound 1 µM),relative viability ([2]; first compound 0.01 µM),relative viability ([2]; first compound 0.03162 µM),relative viability ([2]; first compound 0.1 µM),relative viability ([2]; first compound 0.3162 µM),relative viability ([2]; first compound 1 µM),relative viability ([3]; first compound 0.01 µM),relative viability ([3]; first compound 0.03162 µM),relative viability ([3]; first compound 0.1 µM),relative viability ([3]; first compound 0.3162 µM),relative viability ([3]; first compound 1 µM),relative viability ([4]; first compound 0.01 µM),relative viability ([4]; first compound 0.03162 µM),relative viability ([4]; first compound 0.1 µM),relative viability ([4]; first compound 0.3162 µM),relative viability ([4]; first compound 1 µM)
201T,0.79,0.839,0.805,0.732,0.553,1.02,1.06,0.921,0.94,0.691,0.839,0.816,0.677,0.735,0.561,1.07,1.05,0.916,0.921,0.729
A549,–,–,–,–,–,0.737,0.793,0.375,0.224,0.0497,0.234,0.137,0.218,0.0867,0.0646,0.957,0.811,0.537,0.244,0.111
A-427,0.753,0.768,0.717,0.46,0.271,1.07,1.14,0.713,0.755,0.229,0.429,0.495,0.406,0.29,0.266,1.04,1.06,0.807,0.604,0.196
ABC-1,1.24,1.28,1.07,0.684,0.579,1.03,1.1,1.02,0.577,0.243,0.911,0.837,1.01,0.803,0.591,1.05,1.34,1.09,1.1,0.667
BEN,0.63,0.609,0.481,0.531,0.497,0.841,1.08,–,0.87,0.852,0.719,0.745,0.685,0.607,0.542,0.81,0.733,–,0.663,0.458
CAL-12T,0.542,0.532,0.351,0.166,0.155,1.15,1.2,1.32,0.799,0.306,–,–,–,–,–,0.73,0.688,0.434,0.52,0.356
COR-L23,0.273,0.392,0.218,0.104,0.0886,0.543,0.891,0.771,0.461,0.219,0.378,0.407,0.287,0.188,0.147,0.854,1.06,0.92,0.588,0.14
COR-L 105,0.716,0.719,0.617,0.435,0.486,1.08,1.06,1.12,0.807,0.56,0.594,0.588,0.519,0.419,0.371,0.271,0.393,0.26,0.343,0.356
Calu-6,–,–,–,–,–,0.837,1.08,0.798,0.709,0.338,–,–,–,–,–,1.04,0.903,1.13,0.435,0.284
ChaGo-K-1,0.512,0.526,0.483,0.303,0.279,–,–,–,–,–,0.492,0.506,0.476,0.433,0.364,–,–,–,–,–
EBC-1,–,–,–,–,–,0.841,0.909,0.452,0.75,0.38,–,–,–,–,–,0.2,0.245,–,0.214,0.196
EKVX,0.724,0.611,0.607,0.366,0.411,0.693,0.974,0.584,0.693,0.343,0.311,0.323,0.279,0.215,0.215,0.195,0.197,0.153,0.159,0.143
EMC-BAC-2,–,0.472,0.36,0.28,0.18,0.711,0.65,0.522,0.238,0.15,–,0.712,0.538,0.342,0.328,0.855,0.822,0.572,0.344,0.215
EPLC-272H,0.296,0.323,0.223,0.12,0.0952,0.965,0.934,0.606,0.931,0.539,0.358,0.343,0.301,0.171,0.129,0.862,1.05,0.497,0.807,0.408
H3255,0.737,0.891,0.538,0.682,0.363,0.606,0.758,0.448,0.585,0.298,0.582,0.631,0.586,0.414,0.342,0.234,0.241,0.228,0.262,0.196
HARA,0.458,0.469,0.317,0.258,0.173,0.649,0.854,0.792,0.584,0.167,0.513,0.534,0.473,0.313,0.335,0.591,0.811,0.675,0.56,0.134
HCC-15,0.77,0.864,0.702,0.327,0.249,0.894,0.898,0.721,0.333,0.122,0.591,0.639,0.543,0.336,0.276,0.849,0.832,0.846,0.329,0.152
